# Laboratory results: patent US20240075050A1, “Methods and Compositions for Treating Leucine Rich Repeat Kinase 2 (LRRK2)-Associated Disorder or Condition” (University of Connecticut, priority 2022, published 2024)
# What was measured:
# [1] = tested on: mouse primary cortical neurons; assay: Primary neuronal viability assay, LRRK2-induced neuronal toxicity; format: cell-based; conditions: 1 mM AICAr
# Method: Primary neuronal cultures and viability assay. Primary cortical neuronal cultures were prepared from embryonic day 15-16 CD1 fetal mice (Charles River)^1. Briefly, cortices were dissected and dissociated by Trypsin (Invitrogen). The cells were seeded into 24-well plates pre-coated with poly-L-ornithine (Sigma) and were maintained in Neurobasal medium (Gibco) supplemented with B27 supplement (Gibco) and L-glutamine. The glial cells were inhibited by adding 5-fluoro-20-deoxyuridine (5F2DU, 30 μM, Sigma) at days in vitro (DIV) 4. To assess ATIC in LRRK2-induced toxicity, neurons were first infected with lentiviruses of ATIC-shRNA #6 or control-shRNA at DIV 3, and MYC-LRRK2, […] were co-transfected at a plasmid ratio of 10:1 into neurons at DIV 5 using Lipofectamine 2000 reagent (Invitrogen). […] Fixed cells are washed with PBS, permeabilized and blocked for 1 hour with PBS containing 5% goat serum and 0.3% Triton X-100, then detected with rabbit anti-GFP antibody followed by AlexaFluor-488 anti-rabbit IgG antibody. […] For each independent experiment, the percent viability of GFP-positive neurons (n>100) was determined and normalized to the control neurons transfected with pEGFP-N1 plus pcDNA3.1 empty vector.
# [2] = tested on: GBA, α-Synuclein, VPS35, Parkin, PINK, and DJ-1; assay: Protein levels of other PD-associated proteins in HEK 293T cells, Western blot; format: cell-based, human; conditions: tagged proteins, 1 mM, 48 hours
# Method: (§1) FIGS. 2A-2T depicts that AICAr, the precursor of ATIC substrate, regulates LRRK2 expression levels and neuronal toxicity. FIGS. 2A and 2B depict the overexpressed LRRK2 levels in HEK 293T cells upon AICAr treatment. HEK293 cells were transfected with MYC-LRRK2 and treated with or without 1 mM AICAr for 48 hours. LRRK2 levels were analyzed by Western blot. FIGS. 2C and 2D depict the LRRK2 expression levels in SH-SY5Y cells upon AICAr treatment. Human neuroblastoma SH-SY5Y cells were treated with or without 1 mM AICAr for 48 hours. LRRK2 expression levels were analyzed by Western blot. FIGS. 2E and 2F depict the overexpressed (3-glucocerebrosidase (GCase) levels upon AICAr treatment. HEK 293T cells were transfected with V5-GCase and treated with or without 1 mM AICAr for 48 hours. GCase levels were analyzed by Western blot. FIGS. 2G-2N depict the LRRK2 expression levels in primary neurons (FIG. 2G and FIG. 2H), microglia (FIG. 2I and FIG. 2J), astrocytes (FIG. 2K and FIG. 2L) and human fibroblasts (FIG. 2M and FIG. 2N) upon AICAr treatment. Mouse primary cortical neurons, microglia, astrocytes or human fibroblasts from a health control were treated with or without 1 mM AICAr for 48 hours. LRRK2 expression levels were analyzed by Western blot. […] LRRK2 expression levels were analyzed by Western blot. […] Images were quantified by ImageJ software. […]
# LRRK2 = LRRK2 levels in human fibroblasts, Western blot; format: cell-based; conditions: 1 mM, 48 hours
# Method: as §1
# [3] = tested on: LRRK2-G2019S transgenic flies; assay: LRRK2-induced DA neurodegeneration in LRRK2-G2019S transgenic Drosophila; format: in vivo; conditions: 9-week-old flies, fly food with 1 mM AICAr from posteclosion
# From the text: Administration of AICAr into LRRK2 Drosophila. Ddc-GAL4 and UAS-GFP fly lines were obtained from Bloomington Stock Center. pUAST-attB-LRRK2 WT and G2019S were microinjected into Drosophila embryos (BestGene Inc.)^30. The resulting transgenic flies were crossed with Ddc-GAL4>UAS-GFP, which induces the co-expression of GFP, […] LRRK2 in dopamine and serotonin neurons. To study the effects of AICAr on LRRK2-induced dopaminergic neurodegeneration, flies were fed with regular fly food supplemented with 1 mM AICAr immediately at the posteclosion until 9-week-old.
smiles,measurement,setting,value
"NC(=O)c1ncn([C@@H]2O[C@H](CO)[C@@H](O)[C@H]2O)c1N [AICAr, 5-aminoimidazole-4-carboxamide riboside]",LRRK2 GS mutant induced neuronal toxicity,[1]; mouse primary neurons transfected with MYC-LRRK2 G2019S and eGFP,significantly rescued
same,overexpression of LRRK2-WT induced neuronal toxicity,[1]; mouse primary neurons transfected with MYC-LRRK2 WT and eGFP,significantly rescued
same,"levels of other PD-associated proteins (GBA, α-Synuclein, VPS35, Parkin, PINK, DJ-1)",[2],no changes
same,LRRK2 levels in fibroblasts,LRRK2,significantly decrease
same,LRRK2-GS induced DA neurodegeneration (DA neuron numbers),[3],rescued
